Activity calls are given as the source filed them. The calls are words filed in the database; no cut-off is given here. Starred links: 1 amine or outer side, 2 acyl side, 3 side chain; linkers in the order of their positions; H or OH if unused. Non-standard residues stand in square brackets, D forms with d. Residues, ends and D or L forms follow the SMILES beside them. LeuΨ(S-CHOHCH2)Ala = CC(C)C[C@H](N[*:1])[C@@H](O)C[C@@H](C)C(=O)[*:2]
Assays:
Beta-secretase 1 [1] = target: T1, Beta-secretase 1 (Homo sapiens, UniProt P56817); test: Competitive inhibition of human recombinant […] using panvera peptide as substrate preincubated for 60 mins before substrate addition by FRET assay
T1 sequence (P56817 whole entry): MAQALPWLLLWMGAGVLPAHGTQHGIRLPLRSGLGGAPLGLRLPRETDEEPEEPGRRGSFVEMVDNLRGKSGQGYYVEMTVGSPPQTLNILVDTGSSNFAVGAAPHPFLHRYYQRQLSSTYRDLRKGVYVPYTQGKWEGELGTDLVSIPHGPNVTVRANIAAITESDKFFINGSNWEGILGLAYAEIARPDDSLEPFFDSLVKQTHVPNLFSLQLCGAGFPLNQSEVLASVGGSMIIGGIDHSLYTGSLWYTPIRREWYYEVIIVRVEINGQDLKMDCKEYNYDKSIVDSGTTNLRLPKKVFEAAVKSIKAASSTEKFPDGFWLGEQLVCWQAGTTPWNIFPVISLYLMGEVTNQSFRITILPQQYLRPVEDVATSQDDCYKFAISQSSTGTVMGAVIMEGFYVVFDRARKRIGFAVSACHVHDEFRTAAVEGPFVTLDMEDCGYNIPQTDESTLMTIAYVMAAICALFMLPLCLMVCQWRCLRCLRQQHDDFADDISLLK

Acetylcholinesterase [2] = target: T2, Acetylcholinesterase (Bos taurus, UniProt P23795)
T2 sequence (P23795 whole entry): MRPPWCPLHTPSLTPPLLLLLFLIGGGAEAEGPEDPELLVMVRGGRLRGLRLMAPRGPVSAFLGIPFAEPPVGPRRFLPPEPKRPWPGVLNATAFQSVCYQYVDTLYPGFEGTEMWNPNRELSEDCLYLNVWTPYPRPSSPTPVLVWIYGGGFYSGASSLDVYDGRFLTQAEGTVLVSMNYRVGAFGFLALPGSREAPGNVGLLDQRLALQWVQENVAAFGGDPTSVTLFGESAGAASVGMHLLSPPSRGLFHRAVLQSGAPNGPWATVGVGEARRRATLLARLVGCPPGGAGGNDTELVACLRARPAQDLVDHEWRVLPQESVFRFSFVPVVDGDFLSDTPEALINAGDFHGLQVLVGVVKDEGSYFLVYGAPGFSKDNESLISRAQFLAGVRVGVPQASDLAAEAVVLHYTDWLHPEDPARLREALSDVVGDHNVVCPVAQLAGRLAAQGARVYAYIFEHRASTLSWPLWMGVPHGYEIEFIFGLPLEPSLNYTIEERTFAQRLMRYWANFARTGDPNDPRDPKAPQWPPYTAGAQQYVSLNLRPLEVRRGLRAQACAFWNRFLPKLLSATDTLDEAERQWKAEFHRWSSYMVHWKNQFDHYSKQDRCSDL
Description: (§1) Inhibition of bovine erythrocytes AChE by Ellman's method

Cholinesterase [3] = target: Cholinesterase (Equus caballus, UniProt P81908)
Chain of Cholinesterase (Equus caballus, UniProt P81908) (P81908 whole entry): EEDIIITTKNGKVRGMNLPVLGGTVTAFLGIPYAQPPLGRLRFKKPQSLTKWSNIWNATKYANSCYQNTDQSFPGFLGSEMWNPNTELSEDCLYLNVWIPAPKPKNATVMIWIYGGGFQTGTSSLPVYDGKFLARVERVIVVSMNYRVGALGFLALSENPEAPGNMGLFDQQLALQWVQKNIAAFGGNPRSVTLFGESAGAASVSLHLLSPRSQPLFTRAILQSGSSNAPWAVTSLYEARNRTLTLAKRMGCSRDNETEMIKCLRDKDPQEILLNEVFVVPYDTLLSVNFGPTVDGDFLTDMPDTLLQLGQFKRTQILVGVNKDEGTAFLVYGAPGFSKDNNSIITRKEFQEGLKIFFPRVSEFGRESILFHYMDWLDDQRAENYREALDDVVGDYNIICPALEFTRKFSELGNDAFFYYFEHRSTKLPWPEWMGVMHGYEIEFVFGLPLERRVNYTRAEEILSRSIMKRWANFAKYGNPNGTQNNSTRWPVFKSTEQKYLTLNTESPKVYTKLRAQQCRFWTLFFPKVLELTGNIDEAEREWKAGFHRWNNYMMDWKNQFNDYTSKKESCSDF
Description: (§2) Inhibition of horse serum BChE by Ellman's method

Acetylcholinesterase [4] = target: Acetylcholinesterase (Homo sapiens, UniProt P22303)
Chain of Acetylcholinesterase (Homo sapiens, UniProt P22303) (P22303 whole entry): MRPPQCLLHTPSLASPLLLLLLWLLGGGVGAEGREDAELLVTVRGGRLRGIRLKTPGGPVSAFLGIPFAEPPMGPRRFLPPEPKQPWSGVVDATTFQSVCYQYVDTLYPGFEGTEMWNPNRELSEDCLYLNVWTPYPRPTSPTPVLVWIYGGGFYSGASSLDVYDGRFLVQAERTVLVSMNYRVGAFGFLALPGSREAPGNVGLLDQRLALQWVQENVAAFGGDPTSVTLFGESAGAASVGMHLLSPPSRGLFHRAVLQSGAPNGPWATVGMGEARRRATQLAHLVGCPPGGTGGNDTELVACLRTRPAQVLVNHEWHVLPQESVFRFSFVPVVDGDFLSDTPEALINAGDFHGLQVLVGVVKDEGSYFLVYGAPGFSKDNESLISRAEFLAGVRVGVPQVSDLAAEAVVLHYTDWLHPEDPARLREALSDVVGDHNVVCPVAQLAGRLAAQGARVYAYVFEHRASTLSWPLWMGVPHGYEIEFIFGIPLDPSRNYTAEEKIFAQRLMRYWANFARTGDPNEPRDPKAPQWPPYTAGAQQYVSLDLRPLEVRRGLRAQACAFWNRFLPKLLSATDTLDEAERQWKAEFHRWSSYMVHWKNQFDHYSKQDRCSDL
Description: Inhibition of human erythrocytes AChE by Ellman's method

Cholinesterase [5] = target: T3, Cholinesterase (Homo sapiens, UniProt P06276)
T3 sequence (P06276 whole entry): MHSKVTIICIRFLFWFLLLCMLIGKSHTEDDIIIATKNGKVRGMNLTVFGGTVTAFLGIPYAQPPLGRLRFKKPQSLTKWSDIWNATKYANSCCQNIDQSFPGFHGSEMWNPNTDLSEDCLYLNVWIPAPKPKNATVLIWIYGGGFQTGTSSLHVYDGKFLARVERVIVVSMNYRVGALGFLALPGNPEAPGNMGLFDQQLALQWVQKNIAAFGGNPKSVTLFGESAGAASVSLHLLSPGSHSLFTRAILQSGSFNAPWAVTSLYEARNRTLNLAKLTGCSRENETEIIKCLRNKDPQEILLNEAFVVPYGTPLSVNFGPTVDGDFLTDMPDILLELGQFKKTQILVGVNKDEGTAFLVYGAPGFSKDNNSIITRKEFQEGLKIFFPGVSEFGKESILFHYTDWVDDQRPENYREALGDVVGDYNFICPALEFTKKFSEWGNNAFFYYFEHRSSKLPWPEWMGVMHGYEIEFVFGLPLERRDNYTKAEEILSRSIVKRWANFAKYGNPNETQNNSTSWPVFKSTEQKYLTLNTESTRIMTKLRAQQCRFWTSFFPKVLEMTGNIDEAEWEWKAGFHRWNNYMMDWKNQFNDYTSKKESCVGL
Description: Inhibition of human serum BChE by Ellman's method

Beta-secretase 1 [6] = target: T1, Beta-secretase 1
Description: Inhibition of human recombinant BChE using panvera peptide as substrate preincubated for 60 mins before substrate addition by FRET assay

in vitro = conditions: PAMPA, pH 7.4
Description: Permeability of the compound in phosphate buffer at pH 7.4 by PAMPA

Cholinesterase [7] = target: T3, Cholinesterase; test: Ratio of tacrine IC50 to compound IC50 for human serum BChE
[8] = target: Cholinesterase (Equus caballus) (UniProt P81908)
Chain of Cholinesterase (Equus caballus) (P81908 whole entry): as the sequence (P81908 whole entry) above
Description: as §2

[9] = target: T4, Acetylcholinesterase (Bos taurus) (UniProt P23795)
T4 sequence (whole entry): T2 sequence (P23795 whole entry)
Description: as §1

Structure (SMILES) | Kic (Beta-secretase 1 [1]) [µM] | IC50 (Acetylcholinesterase [2]) [nM] | IC50 (Cholinesterase [3]) [nM] | IC50 (Acetylcholinesterase [4]) [nM] | IC50 (Cholinesterase [5]) [nM] | IC50 (Beta-secretase 1 [6]) [µM] | Papp (in vitro) [×10⁻⁶ cm/s] | Ratio IC50 (Cholinesterase [7]) | inhibition [8] | inhibition [9]
Cl.O=C(NCCCCCCCCCCNc1c2c(nc3ccccc13)CCCC2)c1cc(=O)c2c(O)cc(O)cc2o1 | 1.06 | 500 | 0.35 | 2.3 | 0.8 | 3.6 | 13.1 |  |  | 
O=c1cc(-c2ccc(O)cc2)oc2cc(O)cc(O)c12 [APIGENIN] | 11.3 |  |  |  |  | 38.5 |  |  |  | 
O=C(NCCCCCCCCCCNc1c2c(nc3cc(Cl)cc(Cl)c13)CCCC2)c1cc(=O)c2c(O)cc(O)cc2o1 |  | 75 | 35 |  |  |  |  |  |  | 
O=C(NCCCCCCCNc1c2c(nc3ccccc13)CCCC2)c1cc(=O)c2ccccc2o1 |  | 100 | 1.75 |  |  |  |  |  |  | 
Cl.O=C(NCCCCCCCCCCNc1c2c(nc3ccccc13)CCCC2)c1cc(=O)c2ccccc2o1 |  | 75 | 0.18 | 17.5 | 0.15 |  | 9.1 |  |  | 
O=C(NCCCCCCCCCCNc1c2c(nc3cc(Cl)cc(Cl)c13)CCCC2)c1cc(=O)c2cc(O)ccc2o1 |  | 350 | 17.5 |  |  |  |  |  |  | 
COc1ccc2oc(C(=O)NCCCCCCCCCCNc3c4c(nc5ccccc35)CCCC4)cc(=O)c2c1.Cl |  | 35 | 0.324 | 0.775 | 0.038 |  | 14.9 | 1050 |  | 
O=C(NCCCCCCCCNc1c2c(nc3ccccc13)CCCC2)c1cc(=O)c2ccccc2o1 |  | 150 | 0.5 |  |  |  |  |  |  | 
COc1cc2oc(C(=O)NCCCCCCCCCCNc3c4c(nc5ccccc35)CCCC4)cc(=O)c2cc1OC.Cl | 0.88 | 85 | 0.55 | 1.8 | 15 | 3 | 15 |  |  | 
CC(C)C[C@H](NC(=O)[C@H](CC(N)=O)NC(=O)[C@@H](NC(=O)[C@@H](N)CC(=O)O)C(C)C)[C@@H](O)C[C@@H](C)C(=O)N[C@@H](C)C(=O)N[C@@H](CC(=O)O)C(=O)N[C@@H](Cc1ccccc1)C(=O)O (H-DVN[LeuΨ(S-CHOHCH2)Ala]ADF-OH) | 0.0097 |  |  |  |  | 0.033 |  |  |  | 
COc1cc2oc(C(=O)NCCCCCCCCCCNc3c4c(nc5cc(Cl)cc(Cl)c35)CCCC4)cc(=O)c2cc1OC |  | 175 | 100 |  |  |  |  |  |  | 
COc1cc(OC)c2c(=O)cc(C(=O)NCCCCCCCCCCNc3c4c(nc5ccccc35)CCCC4)oc2c1.Cl | 0.62 | 100 | 0.325 | 2.3 | 0.1 | 2.1 | 14.7 |  |  | 
COc1cc(OC)c2c(=O)cc(C(=O)NCCCCCCCCCCNc3c4c(nc5cc(Cl)cc(Cl)c35)CCCC4)oc2c1 |  | 150 | 0.75 |  |  |  |  |  |  | 
Cl.O=C(NCCCCCCCCCCNc1c2c(nc3cc(Cl)ccc13)CCCC2)c1cc(=O)c2ccccc2o1 | 6.58 | 5 | 0.18 | 0.3 | 0.08 | 22.4 | 7.1 |  |  | 
O=C(O)c1cc(=O)c2ccccc2o1 |  |  |  |  |  |  |  |  | inactive | inactive
Cl.O=C(NCCCCCCCCCCNc1c2c(nc3cc(Cl)ccc13)CCCC2)c1cc(=O)c2cc(O)c(O)cc2o1 | 3.99 | 17.5 | 28 | 0.09 | 95 | 13.6 | 5.3 |  |  | 

Structure (SMILES) | Kic (Beta-secretase 1 [1]) [µM] | IC50 (Acetylcholinesterase [2]) [nM] | IC50 (Cholinesterase [3]) [nM] | IC50 (Acetylcholinesterase [4]) [nM] | IC50 (Cholinesterase [5]) [nM] | IC50 (Beta-secretase 1 [6]) [µM] | Papp (in vitro) [×10⁻⁶ cm/s] | Ratio IC50 (Cholinesterase [7]) | inhibition [8] | inhibition [9]
Cl.O=C(NCCCCCCCCCCNc1c2c(nc3cc(Cl)ccc13)CCCC2)c1cc(=O)c2cc(O)ccc2o1 |  | 80 | 3.5 | 1 | 1.5 |  | 11.5 |  |  | 
COc1cc(O)c2c(=O)cc(C(=O)NCCCCCCCCCCNc3c4c(nc5ccccc35)CCCC4)oc2c1.Cl | 0.85 | 250 | 2 | 1 | 1 | 2.9 | 10.6 |  |  | 
COc1cc(O)c2c(=O)cc(C(=O)NCCCCCCCCCCNc3c4c(nc5cc(Cl)ccc35)CCCC4)oc2c1.Cl |  | 38 | 0.175 | 0.035 | 5 |  | 8.7 |  |  | 
Cl.O=C(NCCCCCCCCCCNc1c2c(nc3ccccc13)CCCC2)c1cc(=O)c2cc(O)c(O)cc2o1 |  | 300 | 8 | 6.5 | 30 |  | 6.3 |  |  | 
COc1cc(OC)c2c(=O)cc(C(=O)NCCCCCCCCCCNc3c4c(nc5cc(Cl)ccc35)CCCC4)oc2c1.Cl |  | 50 | 1 | 0.35 | 0.1 |  | 10.7 |  |  | 
O=C(NCCCCCCCCCCCCNc1c2c(nc3ccccc13)CCCC2)c1cc(=O)c2ccccc2o1 |  | 150 | 0.25 |  |  |  |  |  |  | 
COc1cc2oc(C(=O)NCCCCCCCCCCNc3c4c(nc5cc(Cl)ccc35)CCCC4)cc(=O)c2cc1OC.Cl |  | 6.5 | 0.85 | 0.2 | 50 |  | 7.4 |  |  | 
O=C(NCCCCCCCCCCNc1c2c(nc3cc(Cl)cc(Cl)c13)CCCC2)c1cc(=O)c2cc(O)c(O)cc2o1 |  | 90 | 88 |  |  |  |  |  |  | 
O=C(NCCCCCCCCCCNc1c2c(nc3cc(Cl)cc(Cl)c13)CCCC2)c1cc(=O)c2ccccc2o1 |  | 1000 | 100 |  |  |  |  |  |  | 
O=C(NCCCCCCCCCNc1c2c(nc3ccccc13)CCCC2)c1cc(=O)c2ccccc2o1 |  | 125 | 0.58 |  |  |  |  |  |  | 
COc1ccc2oc(C(=O)NCCCCCCCCCCNc3c4c(nc5cc(Cl)ccc35)CCCC4)cc(=O)c2c1.Cl | 4.23 | 5 | 0.425 | 0.1 | 0.1 | 14.4 | 7.5 |  |  | 
COc1cc(O)c2c(=O)cc(C(=O)NCCCCCCCCCCNc3c4c(nc5cc(Cl)cc(Cl)c35)CCCC4)oc2c1 |  | 80 | 35 |  |  |  |  |  |  | 
Cl.O=C(NCCCCCCCCCCNc1c2c(nc3ccccc13)CCCC2)c1cc(=O)c2cc(O)ccc2o1 | 0.82 | 75 | 1 | 8 | 1.5 | 2.8 | 23.1 |  |  | 
Cl.O=C(NCCCCCCCCCCNc1c2c(nc3cc(Cl)ccc13)CCCC2)c1cc(=O)c2c(O)cc(O)cc2o1 |  | 10 | 3 | 0.065 | 2.5 |  | 7.8 |  |  | 
COc1ccc2oc(C(=O)NCCCCCCCCCCNc3c4c(nc5cc(Cl)cc(Cl)c35)CCCC4)cc(=O)c2c1 |  | 550 | 7.5 |  |  |  |  |  |  | 

— ChEMBL document CHEMBL2016543, “New tacrine-4-oxo-4H-chromene hybrids as multifunctional agents for the treatment of Alzheimer's disease, with cholinergic, antioxidant, and β-amyloid-reducing properties” (J Med Chem, 2012)
